The values that follow are results of earlier work, collected in patent US11123300B2, “Immediate release tablet of a benzothiophene compound” (Hexal AG, priority 2016, dated 2021).

Structures are written as SMILES.

Regarding `O=c1ccc2ccc(OCCCCN3CCN(c4cccc5sccc45)CC3)cc2[nH]1` [brexpiprazole, 7-[4-[4-(1-Benzothiophen-4-yl)piperazin-1-yl]butoxy]quinolin-2(1H)-one], the “solubility of brexpiprazole in water” value was 2.27 µg/mL.
